In PMC12616682, “Identification of a Highly Cooperative PROTAC Degrader Targeting GTP-Loaded KRAS(On) Alleles” (Journal of the American Chemical Society, 2025):
Read-outs that look alike come from different tables or passages of the source.

Key:
[1] = molecular target: T1, KRAS^G12R in Cal-62 cells (Homo sapiens, UniProt P01116, G12R); assay: Endogenous KRAS degradation by Western blot in Cal-62 cells; assay type: cell-based; conditions: Cal-62 (G12R)
T1 construct: Potent degradation of endogenous KRAS^G12R was achieved by ACBI4 in the Cal-62 cell line; host or cells: Cal-62

[2] = molecular target: T2, KRAS^Q61L in SW948 cells (Homo sapiens, UniProt P01116, Q61L); assay: Endogenous KRAS degradation by Western blot in SW948 cells; assay type: cell-based
T2 construct: host or cells: SW948

[3] = system: Calu-6 cells; assay: CellTiter-Glo anti-proliferation, Calu-6; assay type: cell-based, human; conditions: Calu-6 (Q61K)
[4] = molecular target: T3, HiBiT-KRAS^G12R in Cal-62 cells (Homo sapiens, UniProt P01116, G12R); assay: HiBiT degradation assay, HiBiT-KRAS^G12R Cal-62 cells; assay type: cell-based; conditions: Cal-62 (HiBitG12R)
T3 construct: generated a HiBiT-KRAS^G12R Cal-62 knock-in cell line using the CRISPR Cas9 technology; endogenous in cells; host or cells: Cal-62 HiBiT KRAS G12R (in-house CRISPR knock-in)
Method: (Gibco) with 10% FBS in a humidiﬁed cell incubator at 37 °C and 5% CO2.
Plasmids pSpCas9 BB-2A-GFP (PX458) containing gRNA, Cas9 and GFP sequences and […] plasmid containing ssDNA donor template were purchased from Genscript. Cal-62 cells were plated at 5x10^5 cells in a 6-well plate and left to adhere overnight. The next day, the transfection plasmids (0.5 µg of each gRNA plasmid and 0.5 µg of donor template) were diluted in Opti-MEM, combined with Lipofectamine solution in Opti-mem according to the manufacturer’s protocol and incubated for 20 min at RT. The mixture was added to the cells and incubated for 24 h. The next day the media was exchanged, and the cells were left to incubate for another 24 h. GFP positive cells were single-cell sorted into 96-well plates using ﬂuorescence-activated cell sorting (FACS) at the Flow Cytometry and Cell Sorting Facility (University of Dundee). Sorted cells were left to grow in conditioned media supplemented with 20% FBS for 3 weeks. Formed colonies were tested for the expression of HiBiT KRAS using the Nano-Glo® HiBiT Lytic system (Promega). The positive clones were additionally tested for insertion of the HiBiT tag by western blotting for KRAS (mouse anti-KRAS, LsBio) and HiBiT (mouse anti-HiBiT, Promega) and the insert was further conﬁrmed by Sanger sequencing. […]
gRNA1: 5’ […] 3’, gRNA2: 5’ […] 3’, gRNA 3: 5’ […]
template DNA: 5’ caatccagctt tatttgacac tcattctctc aactctcatc tgattcttac tgttaatatt tatccaagag aactactgcc atgatgcttt aaaagttttt ctgtagctgt tgcatattga cttctaacac ttagaggtgg gggtccacta ggaaaactgt aacaataaga gtggagatag ctgtcagcaa cttttgtgag ggtgtgctac agggtgtaga gcactgtgaa gtctctacat gagtgaagtc atgatatgat cctttgagag cctttagccg ccgcagaaca gcagtctggc tatttagata gaacaacttg attttaagat aaaagaactg tctatgtagc atttatgcat ttttcttaag cgtcgatgga ggagtttgta aatgaagtac agttcattac gatacacgtc tgcagtcaac tggaattttc atgattgaat tttgtaaggt attttgaaat aatttttcat ataaaggtga gtttgtatta aaaggtactg gtggagtatt tgatagtgta ttaaccttat gtgtgacatg ttctaatata gtcacatttt cattattttt attataaggc ctgctgaaa […]
atg[…]act gaGtaCaaGctCgtAgtagttggag ctCgtggc gta ggc aag agt gcc ttA acAatCcaActaattcagaatcat tttgtggacg aatatgatcc aacaatagag gtaaatcttg ttttaatatg catattactg gtgcaggacc attctttgat acagataaag gtttctctga ccattttcat gagtacttat tacaagataa ttatgctgaa agttaagtta tctgaaatgt accttgggtt tcaagttata tgtaaccatt aatatgggaa ctttactttc cttgggagta tgtcagggtc catgatgttc actctctgtg cattttgatt ggaagtgtat ttcagagttt cgtgagaggg tagaaatttg tatcctatct ggacctaaaa gacaatcttt ttattgtaac ttttattttt atgggtttct tggtattgtg acatcatatg taaaggttag atttaattgt actagtgaaa tataattgtt tgatggttga tttttttaaa cttcatcagc agtattttcc tatcttcttc tcaacattag agaacctaca actaccggat aaattttaca aaatgaatta tttgcctaag gtgtggttta tataaaggta ctattaccaa ctttaccttt gctttgttgt catttttaaa tttactcaag gaaatactag gatttaaaaa aaaattcctt 3’
Degradation via Detection of Split Nanoluciferase (HiBiT)
To assess PROTAC-mediated degradation of HiBiT-tagged KRAS constructs, cells were seeded at […]
further incubated at 37 °C for 4 and 24 h. Following incubation, 20 µL per well of Promega Nano-Glo® HiBiT lytic detection reagent mix (Promega Nano-Glo® HiBiT Lytic Detection System […]
plotted as percent of DMSO control.

[5] = molecular target: T3, HiBiT-KRAS^G12R in Cal-62 cells; assay: Kinetic degradation (live mode), Cal-62 HiBiT KRAS^G12R cells; assay type: cell-based; conditions: Cal62-HiBit (G12R)
[6] = molecular target: T4, KRAS^G12R in KP-2 cells (Homo sapiens, UniProt P01116, G12R); assay: Endogenous KRAS degradation by Western blot in KP-2 cells; assay type: cell-based; conditions: KP-2 (G12R)
T4 construct: host or cells: KP-2

[7] = system: Cal-62 cells; assay: CellTiter-Glo anti-proliferation, Cal-62; assay type: cell-based, human; conditions: Homo sapiens, 72 h; Cal-62 (G12R); read-out: CTG 72h Ic50
[8] = molecular target: T5, KRAS^Q61K in Calu-6 cells (Homo sapiens, UniProt P01116, Q61K); assay: Endogenous KRAS degradation by Western blot in Calu-6 cells; assay type: cell-based; conditions: Calu-6 (Q61K)
T5 construct: host or cells: Calu-6

[9] = molecular target: T6, HiBiT-KRAS^G12D in GP5d cells (Homo sapiens, UniProt P01116, G12D); assay: HiBiT degradation assay, HiBiT-KRAS^G12D GP5d cells; assay type: cell-based; conditions: for Dmax / DC50: Gp5D (HiBit-G12D)
T6 construct: host or cells: GP5d HiBiT KRAS G12D

[10] = molecular target: T7, KRAS^G12D in GP5d cells (Homo sapiens, UniProt P01116, G12D); assay: Endogenous KRAS degradation by Western blot in GP5d cells; assay type: cell-based
T7 construct: comparison of the degradative effect on endogenous KRAS; host or cells: GP5d

For CC(C)C(C(=O)N1C[C@H](O)C[C@H]1C(=O)NCc1ccc2cnn(C)c2c1)n1nnc2c1CCC(CCCN1CCCN(c3nccc(-c4noc([C@@]5(C)CCCc6sc(N)c(C#N)c65)n4)n3)[C@@H](C)C1)C2 (mixture of isomers) [Compound 4], which Dmax ([1]; 4 h, read-out: DMax 4h) is on record?
Its Dmax is 64%.

And the DC50 ([1]; 4 h, read-out: Dc50 4h)?
Its DC50 is 1530 nM.

What about the Dmax ([1]; 18 h, read-out: DMax 18h) of the same compound?
Its Dmax is 93%.

And the DC50 ([1]; 18 h, read-out: Dc50 18h)?
Its DC50 is 418 nM.

What about the “Dc50 4h” value ([2]; 4 h) of the same compound?
Its value is “unstable”.

And the Dmax ([2]; 4 h, read-out: DMax 4h)?
Its Dmax is 49%.

What about the “Dc50 18h” value ([2]; 18 h) of the same compound?
The value was “unstable”.

And the Dmax ([2]; 18 h, read-out: DMax 18h)?
The Dmax was 50%.

And the “CTG 72h Ic50” value [3]?
The value was “unstable”.

What about the Dmax ([4]; 4 h, read-out: DMax 4h) of the same compound?
The Dmax was 76%.

And the DC50 ([4]; 4 h, read-out: Dc50 4h)?
Its DC50 is 163 nM.

What about the Dmax ([4]; 24 h, read-out: DMax 24h) of the same compound?
Its Dmax is 87%.

What about the DC50 ([4]; 24 h, read-out: Dc50 24h) of the same compound?
Its DC50 is 183 nM.

And the “1/K (Tau)” value [5]?
The value was 1.972 µM.

And the “Plateau (degradation rate)” value [5]?
The value was 0.2614 min⁻¹.

What about the “Plateu/ Tau” value [5] of the same compound?
Its value is 2207 M⁻¹ s⁻¹.

And the Dmax ([6]; 4 h, read-out: DMax 4h)?
The Dmax was 37%.

And the DC50 ([6]; 4 h, read-out: Dc50 4h)?
Its DC50 is 6 nM.

And the Dmax ([6]; 18 h, read-out: DMax 18h)?
The Dmax was 70%.

And the DC50 ([6]; 18 h, read-out: Dc50 18h)?
The DC50 was 224 nM.

And the IC50 [7]?
The IC50 was 488 nM.

And the Dmax ([8]; 4 h, read-out: DMax 4h)?
Its Dmax is 25%.

And the DC50 ([8]; 4 h, read-out: Dc50 4h)?
Its DC50 is 146 nM.

What about the Dmax ([8]; 18 h, read-out: DMax 18h) of the same compound?
The Dmax was 72%.

And the DC50 ([8]; 18 h, read-out: Dc50 18h)?
The DC50 was 187 nM.

And the Dmax ([9]; 4 h, read-out: DMax 4h)?
The Dmax was 83%.

What about the DC50 ([9]; 4 h, read-out: Dc50 4h) of the same compound?
The DC50 was 14 nM.

And the Dmax ([9]; 24 h, read-out: DMax 24h)?
Its Dmax is 94%.

And the DC50 ([9]; 24 h, read-out: Dc50 24h)?
Its DC50 is 4 nM.

What about the “fold improvement in DC50 over 3” value ([9]; HiBiT-KRAS^G12D, 24 h) of the same compound?
Its value is ~9 fold.

And the Dmax ([10]; 4 h, read-out: DMax 4h)?
Its Dmax is 83.5%.

And the DC50 ([10]; 4 h, read-out: Dc50 4h)?
The DC50 was 68 nM.

What about the Dmax ([10]; 18 h, read-out: DMax 18h) of the same compound?
The Dmax was 96.5%.

What about the DC50 ([10]; 18 h, read-out: Dc50 18h) of the same compound?
Its DC50 is 16 nM.
